Reference: patent publication EP2924039A1, “2-Amino-1-phenyl-pyrrolo[3,2-b]quinoxaline-3-carboxamide derivates” (Universität Zürich, priority 2014, dated 2015)

Legend:
[1] = tested on: A498 (kidney cancer) cells; assay: Cell culture and GI50 determination (resazurin), A-498; assay type: cell-based; details: Homo sapiens, A-498, 48h incubation
Protocol: Krek (Institute of Cell Biology, ETH Zurich) were cultured in Dulbelcco's modified Eagle's medium (DMEM) supplemented with 10% (v/v) fetal bovine serum. K562 leukemia cells obtained from Dr. Silvio Hemmi (Institute of Molecular Life Sciences, UZH) were cultured using RPMI medium supplemented with 5% (v/v) fetal bovine serum. All the media was additionally supplemented with 100 units/mL of penicillin, 100µg/mL of streptomycin, 4.5 g/L glucose, 0.11g/L sodium pyrubate and 2mM glutamine and the cells were grown at 37°C in 5% CO2 atmosphere with 80% relative humidity.
The old media was removed, the cells were washed with PBS (phosphate-buffered saline) and fresh media was added. […] Control cells were treated with the same DMSO concentrations. […] After 3 hours, the fluorescence was quantified using a fluorescence microplate reader (Biotek, FLx800™) at the respective excitation and emission wavelength of 560 and 590 nm. Resazurin becomes fluorescent under mitochondrial reduction and its emission directly correlates with the metabolic stability of the cells. […] All measurements were performed at least in triplicate (see table 1).

[2] = In vivo pharmacokinetics in blood plasma; parameters: species or system male CD-1 (ICD) mice; details: for T1/2 (min, PO) / Cmax / Tmax: 5 mg/kg, PO; for Bio-availability (%): [AUClast(PO)*Dose(IV)] / [AUClast(IV)*Dose(PO)], PO 5 mg/kg, IV 1 mg/kg; for Tmax: read-out: Tmax (min, PO) (converted)
Protocol: Evaluation of the in vivo pharmacokinetics of a subset of compounds was performed through analysis of compound concentration in the blood plasma of male CD-1 (ICD) mice (each weighing 20-30g) over a 24 hour period (at time points of 3, 10, 30, 60, 120, 240, 360 and1440 minutes) following a single oral (PO) and intravenous (IV, in tail vein) administration of a compound dose corresponding to 5 mg of compound/kg of mouse body weight (PO) and 1 mg of compound/kg of mouse body weight (IV). For IV dosing, each compound was formulated as a clear solution in DMSO/Solutol® HS 15/phosphate-buffered saline, pH 7.4 (PBS) (5/5/90, v/v/v). For PO dosing, compounds were formulated as a homogeneous suspension in DMSO/1% methylcellulose (5/95, v/v).
At the relevant time point, blood samples (300-400 µL) were collected from the mice under general inhalant anaesthesia by cardiac puncture and stored on ice in 0.6 mL polypropylene heparin-lithium-coated tubes. Within 1 hour of collection, each tube was centrifuged at 2500 G for 15 minutes at 4°C and harvested plasma stored at -20°C.
Compound concentration in plasma at each time point was determined following acetonitrile precipitation of each sample followed by HPLC-MS analysis performed in triplicates, i.e., based on the mean of the compound concentration at that time point in blood samples of three mice.
T1/2 is the terminal elimination half-life following IV and PO dosing (obtained from non-compartmental analysis (NCA) of the plasma data using WinNonLin). Tmax is the time following PO administration at which the maximum concentration is observed (obtained from non-compartmental analysis (NCA) of the plasma data using WinNonLin). Cmax corresponds to the concentration observed at Tmax following PO administration (obtained from non-compartmental analysis (NCA) of the plasma data using WinNonLin). Bioavailability was calculated as the ratio of: [AUClast(PO)*Dose(IV)] / [AUClast(IV)*Dose(PO)] where AUClast is the area under the curve (estimated by summing incremental areas of a series of trapezoids) of a plot of compound concentration versus time, up to the time of the last observation that is greater than the limit of quantification. Table 6: In vivo pharmacokinetics (min: minutes)

[3] = male, CD-1 (ICD), mouse, mice plasma

| Compound | GI50 [1] | T1/2 (min, PO) ([2]; mice plasma) | Bio-availability (%) [2] | half-life ([2]; male, CD-1 (ICD), mouse, IV, 1 mg/kg, mice plasma, read-out: T1/2 (min, IV)) | Cmax [2, 3] | Tmax [2, 3] | T1/2 (min, IV) ([2]; IV, 1 mg/kg, mice plasma) |
| --- | --- | --- | --- | --- | --- | --- | --- |
| NC(=O)c1c(N)n(-c2cccc(NC(=O)c3cccc(C(F)(F)F)c3)c2)c2nc3ccccc3nc12 [Compound 10d, 2-amino-1-(3-(3-(trifluoromethyl)benzamido)phenyl)-1H-pyrrolo[2,3-b]quinoxaline-3-carboxamide] | 13.4 µM | 4.95 h | 10% | 1.18 h | 45 ng/mL | 2 h |  |
| NC(=O)c1c(N)n(-c2cccc(C(=O)Nc3cccc(C(F)(F)F)c3)c2)c2nc3ccccc3nc12 [Compound 10c, 2-amino-1-(3-((3-(trifluoromethyl)phenyl)carbamoyl)phenyl)-1H-pyrrolo[2,3-b]quinoxaline-3-carboxamide] |  | 2.78 h | 30% |  | 164 ng/mL | 1 h | 1.1 h |
